# Laboratory results taken from patent US5300284A, “Glycosaminoglycanase inhibitor andethane diol composition for maintenance of hair growth” (priority 1991, dated 1994).
# Experiment: Flow-through skin penetration of 14C-labelled glucarolactone
# Type: in vitro ADME, pig
# Details: 20 hours
# Description: In order to simulate human skin penetration in vivo, full thickness pig skin was used in a flow-through skin penetration cell system. For this purpose, the technique described by Bronough R L, and Stuart R F in "Methods for in vitro percutaneous absorption studies IV: The flow-throughdiffusion cell", published in J. Pharm.
# This system allows for the study of percutaneous absorption from topically applied substances in a controlled manner, i.e. at controlled temperature and with constant receptor fluid flow rate. The flow-through skin penetration cell has a surface area of skin of 0.38 cm^2 exposed to a formulation containing a test substance. At time zero, 25 μl of a formulation containing tracer amounts of ^14 C-labelled glucarolactone was applied to the skin and left for 20 hours. During this period of penetration, receptor fluid flowing underneath the dermal side of the skin was collected in fractions at 2 hour intervals. At time 20 hours, the skin was vigorously washed to remove all non-absorbed material, the remaining receptor fluid in the cell also being collected at this time.
# Subsequently, the piece of skin was detached from the cell and keratatomed at a thickness of about 1.3 mm. This procedure will separate the lower section of the dermis from that containing the stratum corneum, viable epidermis, upper part of dermis and neck of hair follicle. To refine further the picture of distribution of radioactivity, the upper section was subsequently tape stripped 5 times using transparent adhesive tape to remove residual radioactive materials adhering to the outer surface of the skin. All these sections were digested and counted for radioactivity. Each penetration cell therefore yielded 4 results:
# i) transdermal penetration, i.e. the amount retrieved in receptor fluid flowing on the dermal side of the skin;
# ii) tape strips, i.e. amounts of radio active material adhering to the skin surface;
# iii) upper section of skin, i.e. remainder of stratum corneum, neck of hair follicle, viable epidermis and upper part of dermis;
# iv) lower section of skin, i.e. remainder of dermis containing the remaining part of hair follicles and dermal papillae.
# The results obtained from categories ii), iii) and iv) above together constitute the amounts retrieved from within the skin, i.e. dermal penetration. The results may be expressed as percentage of dose applied, or as the actual amounts delivered.
# The following formulation was used to determine penetration and delivery of glucarolactone in accordance with the Bronaugh flow-through skin penetration cell technique:
# Scintillation counting was employed to determine the amount of the enzyme inhibitor, glucarolactone, which had penetrated the skin to a point where it would be available to inhibit glycosaminoglycanase in the immediate environment of the hair bulb.
# The results obtained are shown in the following Table 1 in which the values given represent percentages of the glucarolactone dose applied topically which actually penetrates into and through the skin and is recovered at various levels. In addition, the actual amounts of penetrated glucarolactone is given. The results shown are the average and standard error of the mean of 33 determinations.
# [1] = dermal (tapes + upper + lower section), 8% w/w glucarolactone formulation, mean ± SEM of 33 determinations
# [2] = lower section of skin (hair follicles, dermal papillae), 8% w/w glucarolactone formulation, mean ± SEM of 33 determinations
# [3] = tape strips (skin surface), 8% w/w glucarolactone formulation, mean ± SEM of 33 determinations
# [4] = total (transdermal + dermal), 8% w/w glucarolactone formulation
# [5] = transdermal (receptor fluid), 8% w/w glucarolactone, 10% ethane diol formulation, mean ± SEM of 33 determinations
# [6] = upper section of skin, 8% w/w glucarolactone formulation, mean ± SEM of 33 determinations
smiles,measurement,setting,value
O=C(O)[C@@H](O)[C@H]1OC(=O)[C@H](O)[C@H]1O [glucarolactone],"Actual Amount GL Delivered, Dermal",[1],72.87 ± 16.62 µg
same,"Percentage of Applied Dose, Dermal",[1],3.719 ± 0.848%
same,"Actual Amount GL Delivered, lower section",[2],56.63 ± 14.33 µg
same,"Percentage of Applied Dose, lower section",[2],2.890 ± 0.731%
same,"Actual Amount GL Delivered, tapes",[3],2.38 ± 0.39 µg
same,"Percentage of Applied Dose, tapes",[3],0.122 ± 0.020%
same,"Actual Amount GL Delivered, Total",[4],80.67 µg
same,"Percentage of Applied Dose, Total",[4],4.117%
same,"Actual Amount GL Delivered, Transdermal",[5],7.80 ± 2.47 µg
same,"Percentage of Applied Dose, Transdermal",[5],0.398 ± 0.126%
same,"Actual Amount GL Delivered, upper section",[6],13.86 ± 3.00 µg
same,"Percentage of Applied Dose, upper section",[6],0.707 ± 0.153%
